For the assay, the target named is T1, human FSH receptor (Homo sapiens, UniProt P23945).
T1 construct: expressed in transfected cells; host or cells: CHO cells (hFSHR clone 16)
T1 sequence (P23945 18-695): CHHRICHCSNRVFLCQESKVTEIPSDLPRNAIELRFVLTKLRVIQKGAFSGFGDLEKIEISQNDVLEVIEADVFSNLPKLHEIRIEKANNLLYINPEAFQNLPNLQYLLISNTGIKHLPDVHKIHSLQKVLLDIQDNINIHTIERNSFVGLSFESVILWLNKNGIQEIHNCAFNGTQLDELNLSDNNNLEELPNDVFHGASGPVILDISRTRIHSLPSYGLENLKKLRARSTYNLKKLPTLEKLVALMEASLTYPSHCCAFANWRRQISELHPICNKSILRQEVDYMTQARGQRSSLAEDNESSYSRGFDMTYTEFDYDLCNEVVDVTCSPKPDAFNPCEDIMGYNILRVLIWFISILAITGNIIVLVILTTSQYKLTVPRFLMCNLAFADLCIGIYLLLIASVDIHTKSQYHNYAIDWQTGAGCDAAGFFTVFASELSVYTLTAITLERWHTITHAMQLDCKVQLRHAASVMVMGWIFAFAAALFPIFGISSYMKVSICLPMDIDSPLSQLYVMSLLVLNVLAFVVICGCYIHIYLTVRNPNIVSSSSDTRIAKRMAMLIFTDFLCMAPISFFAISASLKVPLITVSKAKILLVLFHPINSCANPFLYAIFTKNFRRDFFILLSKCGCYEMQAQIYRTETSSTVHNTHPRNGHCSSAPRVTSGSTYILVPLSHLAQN
The assay can be described thus: HTRF assay for measuring cAMP in cells (FSH-antagonistic effect). As to conditions: hFSHR clone 16 cells (CHO cells stably transfected with the human FSH receptor), in the presence of 1e-9 mol/l hFSH. The class given is cell-based. As for the experimental part: HTRF Assay for Measuring cAMP in Cells
The method is based on a competitive immunoassay between native cAMP, which has been produced by the cells, and cAMP which is labelled with XL665. The tracer binding was visualized by a monoclonal antibody, anti-cAMP labelled with cryptate [HTRF=homogeneous time-resolved fluorescence].
The specific signal is inversely proportional to the cAMP concentration of the samples employed.
The 665 nm/620 nm fluorescence ratio was evaluated.
The following material was used: 96-well plates for the tissue culture, 96-well plates with black edge and black base (e.g. Fluotrac 600 from Greiner), 96-well plates for the substance dilutions of polypropylene and cAMP Femtomolar (4000 wells Kit, CIS Bio International #62AM1PEC).
The following reagents were used: BSA (bovine serum albumin) Fraction V protease-free, IBMX (3-isobutyl-1-methylxanthine), hFSH (human follicle stimulating hormone), Triton X-100 analytical grade, potassium fluoride analytical grade, G 418 (Geneticin) and Accutase.
Buffer 1 (washing and testing buffer) contained PBS, 1 mM CaCl2, 1 mM MgCl2, 0.2% glucose; 0.1% BSA, 1 mM IBMX. Buffer 2 (2× lysis buffer) contained 1% Triton X-100 in PBS (without CaCl2 and MgCl2). Buffer 3 (assay buffer) contained 50 mM potassium phosphate buffer (pH 7.0); 800 mM potassium fluoride; 0.2% BSA (always added fresh).
On day 1, the cells were seeded in 96-well plates (3×10^4 cells per well hFSHR clone 16 cells (CHO cells stably transfected with the human FSH receptor in 150 μl of medium). The next day, test substance dilutions were made up. For this purpose, all the substances were diluted in ice-cold buffer 1 (with or without hFSH), and the substance dilutions were placed on ice until applied to the cells.
The cell supernatant was then aspirated off, and the cells were washed 2× with 200 μl of buffer 1. The cells were treated with 60 μl of the appropriate substance concentrations at 37° C. for 2 h. The cells were then lysed with 60 μl of buffer 2 (put onto the supernatant) (on a plate shaker at RT for 30 min).
The test conjugates (XL-665 and anti-cAMP cryptate) were diluted in buffer 3 in accordance with the manufacturers' information. The actual mixture for measurement was pipetted into a black 96-well plate (in each case 15 μl of the cell lysate diluted with 35 μl of buffer 1; firstly 25 μl of XL-665 conjugate were pipetted and, after 10 min, 25 μl of the anti-cAMP cryptate were added). This is followed by incubation at RT for 90 minutes. The measurement was carried out in a PheraStar (BMG).
Dose-effect curve (hFSH) for the human receptor: 1e-8, 3e-9, 1e-9, 3e-10, 1e-10, 3e-11, 1e-11, 3e-12 mol/l.
The test substances were employed in suitable dilutions in the absence (test for agonism) and in the presence of 1e-9 mol/l hFSH.
The values of the well ratio were averaged and then entered directly in SigmaPlot versus the concentrations. The maximum and minimum values were determined for each plate, and half the difference is to be regarded as IC50.
Background: Time-resolved FRET reads energy transfer from a long-lived donor to a nearby acceptor.
On to `COc1ccc(-c2ccc(OC(C)C)c(C(=O)NC3(CO)CCc4[nH]c5ccc(F)cc5c4C3)c2)cc1OC` (stereo not drawn) [Example 18, 4-Isopropoxy-3′,4′-dimethoxy-biphenyl-3-carboxylic acid (6-fluoro-3-hydroxymethyl-2,3,4,9-tetrahydro-1H-carbazol-3-yl)-amide], for which the IC50 (as a rule, the concentration that inhibits the measured activity by half) came out at 0.2 µM.
The value for `COc1ccc2nc(-c3ccccc3)cc(C(=O)NC3(CO)CCc4[nH]c5ccccc5c4C3)c2c1` (stereo not drawn) [Example 4, 6-Methoxy-2-phenyl-quinoline-4-carboxylic acid (3-hydroxymethyl-2,3,4,9-tetrahydro-1H-carbazol-3-yl)-amide] was 2 µM; that for `CC(C)Oc1ccc(-c2cc3ccccc3o2)cc1C(=O)NC1(CO)CCc2[nH]c3ccccc3c2C1` (stereo not drawn) [Example 38, 5-Benzofuran-2-yl-N-(3-hydroxymethyl-2,3,4,9-tetrahydro-1H-carbazol-3-yl)-2-isopropoxy-benzamide] was 0.6 µM.
`CC(C)Oc1ccc(-c2cc3ccccc3o2)cc1C(=O)NC1(CO)CCc2[nH]c3ccc(C(=O)O)cc3c2C1` (stereo not drawn) [Example 39, 6-(5-Benzofuran-2-yl-2-isopropoxy-benzoylamino)-6-hydroxymethyl-6,7,8,9-tetrahydro-5H-carbazole-3-carboxylic acid]: the IC50 is 6 µM.
The value for `CC(C)Oc1ccc(-c2cc3ccccc3o2)cc1C(=O)NC1(CO)CCc2[nH]c3ccc(F)cc3c2C1` (stereo not drawn) [Example 42, 5-Benzofuran-2-yl-N-(6-fluoro-3-hydroxymethyl-2,3,4,9-tetrahydro-1H-carbazol-3-yl)-2-isopropoxy-benzamide] was 0.35 µM; that for `Cc1cccc2c3c([nH]c12)CCC(CO)(NC(=O)c1cc(-c2cc4ccccc4o2)ccc1OC(C)C)C3` (stereo not drawn) [Example 46, 5-Benzofuran-2-yl-N-(3-hydroxymethyl-8-methyl-2,3,4,9-tetrahydro-1H-carbazol-3-yl)-2-isopropoxy-benzamide] was 2.5 µM.

Source of the values: patent US20080275083A1, “2,3,4,9-TETRAHYDRO-1H-CARBAZOLES” (priority 2007, published 2008).
